Data as given in ChEMBL document CHEMBL1156106 (J Med Chem, 2009).

Legend:
Rattus norvegicus [1] = assay: Effect on behavioural activity in ip dosed rat assessed as cocaine-induced lever response pretreated with cocaine by drug-discrimination studies; format: functional
Rattus norvegicus [2] = assay: Effect on behavioural activity in rat assessed as cocaine-induced lever response at 0.5 mg/kg, ip pretreated with cocaine for 15 mins by drug-discrimination studies; format: functional; settings: route intraperitoneal
[3] = biological target: T1, Sodium-dependent serotonin transporter (Homo sapiens, UniProt P31645); assay: biochemical; format: cell-based, HEK293
[4] = biological target: T2, Sodium-dependent noradrenaline transporter (Homo sapiens, UniProt P23975); assay: Displacement of [125I]RTI55 from cloned human NET expressed in HEK293 cells; format: cell-based
Mus musculus [5] = assay: Antidepressant activity in ip dosed mouse assessed as stimulation of locomotor activity; format: functional
Mus musculus [6] = assay: Antidepressant activity in ip dosed mouse assessed as stimulation of locomotor activity relative to cocaine; format: functional
Mus musculus [7] = assay: Antidepressant activity in ip dosed mouse assessed as time to reach peak stimulation of locomotor activity; format: functional
Mus musculus [8] = assay: Antidepressant activity in ip dosed mouse assessed as duration of locomotor activity; format: functional
Rattus norvegicus [9] = assay: Effect on behavioural activity in rat assessed as cocaine-induced lever response at 1 mg/kg, ip pretreated with cocaine for 15 mins by drug-discrimination studies; format: functional; settings: route intraperitoneal
Rattus norvegicus [10] = assay: Effect on behavioural activity in rat assessed as cocaine-induced lever response at 2.5 mg/kg, ip pretreated with cocaine for 15 mins by drug-discrimination studies; format: functional; settings: route intraperitoneal
Rattus norvegicus [11] = assay: Effect on behavioural activity in rat assessed as cocaine-induced lever response at 5 mg/kg, ip pretreated with cocaine for 15 mins by drug-discrimination studies; format: functional; settings: route intraperitoneal
Rattus norvegicus [12] = assay: Effect on behavioural activity in rat assessed as cocaine-induced lever response at 10 mg/kg, ip pretreated with cocaine for 15 mins by drug-discrimination studies; format: functional; settings: route intraperitoneal
Rattus norvegicus [13] = assay: Effect on behavioural activity in rat assessed as cocaine-induced lever response at 25 mg/kg, ip pretreated with cocaine for 15 mins by drug-discrimination studies; format: functional; settings: route intraperitoneal
Rattus norvegicus [14] = assay: Effect on behavioural activity in rat assessed as cocaine-induced lever response at 50 mg/kg, ip pretreated with cocaine for 15 mins by drug-discrimination studies; format: functional; settings: route intraperitoneal
Rattus norvegicus [15] = assay: Effect on behavioural activity in rat assessed as cocaine-induced lever response at 100 mg/kg, ip pretreated with cocaine for 15 mins by drug-discrimination studies; format: functional; settings: route intraperitoneal
[16] = biological target: T3, Sodium-dependent dopamine transporter (Homo sapiens, UniProt Q01959); assay: Displacement of [125I]RTI55 from cloned human DAT expressed in HEK293 cells; format: cell-based
[17] = biological target: T3, Sodium-dependent dopamine transporter; assay: Inhibition of [3H]dopamine reuptake at human DAT expressed in HEK293 cells; format: cell-based
[18] = biological target: T1, Sodium-dependent serotonin transporter; assay: Inhibition of [3H]serotonin reuptake at human SERT expressed in HEK293 cells; format: cell-based
[19] = biological target: T2, Sodium-dependent noradrenaline transporter; assay: Inhibition of [3H]norepinephrine reuptake at human NET expressed in HEK293 cells; format: cell-based

T2 sequence (P23975 whole entry): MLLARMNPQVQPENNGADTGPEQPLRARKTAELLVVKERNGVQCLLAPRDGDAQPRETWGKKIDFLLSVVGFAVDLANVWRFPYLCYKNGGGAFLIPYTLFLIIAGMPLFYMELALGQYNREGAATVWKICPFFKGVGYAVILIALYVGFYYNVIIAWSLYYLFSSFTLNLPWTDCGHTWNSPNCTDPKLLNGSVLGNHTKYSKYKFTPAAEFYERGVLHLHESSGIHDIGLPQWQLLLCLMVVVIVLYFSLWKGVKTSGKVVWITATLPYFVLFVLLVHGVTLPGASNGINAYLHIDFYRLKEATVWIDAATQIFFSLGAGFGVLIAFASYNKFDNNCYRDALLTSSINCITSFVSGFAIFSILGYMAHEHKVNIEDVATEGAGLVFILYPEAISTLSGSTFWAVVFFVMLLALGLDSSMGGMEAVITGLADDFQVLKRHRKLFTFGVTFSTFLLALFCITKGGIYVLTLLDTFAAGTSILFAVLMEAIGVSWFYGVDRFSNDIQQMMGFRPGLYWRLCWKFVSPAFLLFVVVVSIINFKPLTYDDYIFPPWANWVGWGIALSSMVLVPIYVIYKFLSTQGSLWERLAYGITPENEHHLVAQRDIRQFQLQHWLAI
T1 sequence (P31645 whole entry): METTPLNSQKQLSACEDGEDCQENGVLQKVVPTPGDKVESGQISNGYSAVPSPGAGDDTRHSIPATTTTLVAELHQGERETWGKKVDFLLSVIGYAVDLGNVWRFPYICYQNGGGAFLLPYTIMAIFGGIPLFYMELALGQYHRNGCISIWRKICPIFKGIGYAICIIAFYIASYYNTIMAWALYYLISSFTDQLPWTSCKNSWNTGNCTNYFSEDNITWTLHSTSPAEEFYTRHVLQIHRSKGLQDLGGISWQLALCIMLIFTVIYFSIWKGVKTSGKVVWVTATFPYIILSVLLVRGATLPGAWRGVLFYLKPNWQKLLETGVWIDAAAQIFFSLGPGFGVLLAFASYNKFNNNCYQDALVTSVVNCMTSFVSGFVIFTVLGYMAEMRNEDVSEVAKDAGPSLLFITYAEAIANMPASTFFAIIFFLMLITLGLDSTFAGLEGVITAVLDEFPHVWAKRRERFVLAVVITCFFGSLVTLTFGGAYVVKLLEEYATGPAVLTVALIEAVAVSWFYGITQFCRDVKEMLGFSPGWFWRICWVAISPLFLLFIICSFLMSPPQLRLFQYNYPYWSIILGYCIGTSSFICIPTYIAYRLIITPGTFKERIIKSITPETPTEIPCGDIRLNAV
T3 sequence (Q01959 whole entry): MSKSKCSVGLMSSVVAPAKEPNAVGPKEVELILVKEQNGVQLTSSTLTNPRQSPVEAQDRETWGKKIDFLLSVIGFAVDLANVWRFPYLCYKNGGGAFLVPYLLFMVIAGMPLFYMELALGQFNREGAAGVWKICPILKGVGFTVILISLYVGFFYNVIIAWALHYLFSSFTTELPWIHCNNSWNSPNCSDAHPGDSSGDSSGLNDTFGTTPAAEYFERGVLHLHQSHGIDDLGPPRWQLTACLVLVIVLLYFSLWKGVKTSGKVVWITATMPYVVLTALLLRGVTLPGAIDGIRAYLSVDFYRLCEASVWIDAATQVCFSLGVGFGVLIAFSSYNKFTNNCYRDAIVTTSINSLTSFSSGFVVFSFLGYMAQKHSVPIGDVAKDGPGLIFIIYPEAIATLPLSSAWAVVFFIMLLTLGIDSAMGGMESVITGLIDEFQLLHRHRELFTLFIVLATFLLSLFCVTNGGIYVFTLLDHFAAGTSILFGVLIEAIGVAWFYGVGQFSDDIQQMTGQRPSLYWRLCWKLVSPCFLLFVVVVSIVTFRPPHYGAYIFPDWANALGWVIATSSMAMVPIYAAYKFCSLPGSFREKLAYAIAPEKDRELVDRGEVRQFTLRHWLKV

SMILES | ED50 (Rattus norvegicus [1]) [mg/kg] | Activity (Rattus norvegicus [2]) [%] | Ki [3] [nM] | Ki [4] [nM] | ED50 (Mus musculus [5]) [mg/kg] | Activity (Mus musculus [6]) [%] | Time to peak locomotor stimulation (Mus musculus [7]) [min] | Time (Mus musculus [8]) [min] | Activity (Rattus norvegicus [9]) [%] | Activity (Rattus norvegicus [10]) [%] | Activity (Rattus norvegicus [11]) [%] | Activity (Rattus norvegicus [12]) [%] | Activity (Rattus norvegicus [13]) [%] | Activity (Rattus norvegicus [14]) [%] | Activity (Rattus norvegicus [15]) [%] | Ki [16] [nM] | IC50 [17] [nM] | IC50 [18] [nM] | IC50 [19] [nM]
CC(C)NC(C)C(=O)c1cccc(Cl)c1 (stereo not given) | 8.8 | 0.3 | > 10000 | > 10000 | 6.2 | 46 | 20 | 50 | 21.2 | 27 | 43.8 | 53.3 | 78.6 | 73.5 | 94.9 | – | – | – | –
CC(C)CC(NC(C)(C)C)C(=O)c1cccc(Cl)c1 (stereo not given) | – | – | 6200 | 2300 | 25.7 | 89 | 260 | 60 | – | – | – | – | – | – | – | 140 | 440 | > 10000 | 360
